Results: ChEMBL document CHEMBL3046805, “Synthesis and antimalarial evaluation of novel pyridine quinoline hybrids” (Med Chem Res, 2008)

Key:
[1] = Inhibition of beta-hematin polymerization after 24 hr by spectrophotometric analysis; type: physicochemical
[2] = system: Plasmodium falciparum; test: Antiplasmodial activity against chloroquine-sensitive Plasmodium falciparum assessed as vacuolar accumulation ratio; type: functional
[3] = system: Plasmodium falciparum; test: Antiplasmodial activity against chloroquine-sensitive Plasmodium falciparum after 30 to 34 hr by schizont maturation assay; type: functional, organism-based

SMILES	IC50 [1] [mM]	Ratio [2]	IC50 [3] [mM]
CCN(CC)CCCC(C)Nc1ccnc2cc(Cl)ccc12 (stereo not given) [CHLOROQUINE]	1.89	–	–
Clc1ncccc1Oc1cc2c(c3ncccc13)Oc1ncccc1O2	2.11	1.2	0.0037
Brc1cc2c(c3ncccc13)Oc1ncccc1O2	2.17	1.03	0.0064
Brc1cc2c(c3ncccc13)Oc1cc(Br)c3cccnc3c1O2	2.78	1.01	0.0074
